Reference: patent US4751222A, “2,3,4,5-tetrahydro-1H-3-benzazepines and CNS affecting use thereof” (Novo Industri A/S, priority 1985, dated 1988)
pKi: −log10 of the molar value. Structures can show the parent of a compound that is named as a salt. Where two headings read alike, the source gives them in different places.

Tests used:
[1] = system: dopamine D1; conditions: cited from earlier work
[2] = Life Sci. 34 (1984), 1529; cited from earlier work
[3] = target: dopamine D1 receptor (Rattus norvegicus, UniProt P18901); experiment: biochemical; conditions: read-out: Ki, dopamine stimulated adenylate cyclase
Excerpt: Ki is the affinity of the tested compound for the dopamine D1 receptor as estimated from Schild analysis.

[4] = system: rats; experiment: acute toxicity in rats, intraperitoneal; type: in vivo; conditions: 100 mg/kg intraperitoneal
Method: (§1) 8-chloro-7-hydroxy-3-methyl-5-(5-indanyl)-2,3,4,5-tetrahydro-1H-3-benzazepine and several other compounds of formula I were atoxic when given to rats and mice in a dosis of 100 mg/kg intraperitonealt.

[5] = system: mice; experiment: acute toxicity in mice, intraperitoneal; type: in vivo; conditions: 100 mg/kg intraperitoneal
Method: as §1

[6] = Life Sci. 31 (1982), 637 et seq.

dopamine D1 receptor, sequence (P18901 whole entry): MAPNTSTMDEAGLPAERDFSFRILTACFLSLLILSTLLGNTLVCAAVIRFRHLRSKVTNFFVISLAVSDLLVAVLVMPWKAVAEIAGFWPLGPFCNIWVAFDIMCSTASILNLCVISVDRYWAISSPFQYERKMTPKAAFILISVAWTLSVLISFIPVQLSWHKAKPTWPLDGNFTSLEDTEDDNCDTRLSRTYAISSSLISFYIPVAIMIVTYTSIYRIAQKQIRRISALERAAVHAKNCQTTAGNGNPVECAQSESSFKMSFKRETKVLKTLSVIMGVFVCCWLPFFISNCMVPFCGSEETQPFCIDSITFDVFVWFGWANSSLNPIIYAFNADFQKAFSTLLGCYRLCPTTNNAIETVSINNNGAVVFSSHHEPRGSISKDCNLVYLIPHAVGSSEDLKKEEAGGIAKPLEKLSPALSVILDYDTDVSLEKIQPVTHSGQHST

CN1CCc2cc(Cl)c(O)cc2[C@@H](c2ccccc2)C1 [SCH 23390, R-8-chloro-7-hydroxy-2,3,4,5-tetrahydro-3-methyl-5-phenyl-1H-3-benzazepine]
dopamine D1 activity ([1]; Eur.J.Pharmacol. 91 (1983), 153 et seq.): selective D1 dopamine antagonist
duration of action [2]: short duration of action
peroral adsorption [2]: poor peroral adsorption

CN1CCc2cc(Cl)c(O)cc2C(c2ccc3c(c2)CCCC3)C1 (racemic) [Example No. 5j, 8-chloro-7-hydroxy-5-(1,2,3,4-tetrahydronaphth-6-yl)-3-methyl-2,3,4,5-tetrahydro-1H-3-benzazepine hydrochloride]
pKi [3]: 7.68

Oc1cc2c(cc1O)C(c1ccccc1)CNCC2 (stereo not shown) [SKF 38393, 2,3,4,5-tetrahydro-7,8-dihydroxy-1-phenyl-1H-3-benzazepine]
dopamine D1 activity [1, 6]: selective but partial dopamine D1 agonists

Br.CN1CCc2cc(Cl)c(O)cc2C(c2ccc3c(c2)CCC3)C1 (stereo not shown) [Example No. 5a, 8-chloro-7-hydroxy-3-methyl-5-(5-indanyl)-2,3,4,5-tetrahydro-1H-3-benzazepine hydrobromide]
toxicity in rats [4]: atoxic
toxicity in mice [5]: atoxic

CN1CCc2cc(Cl)c(O)cc2C(c2ccc(Cl)c3c2OCCC3)C1 (racemic) [Example No. 5f, 8-chloro-7-hydroxy-3-methyl-5-(5-chlorochroman-8-yl)-2,3,4,5-tetrahydro-1H-3-benzazepine]
pKi [3]: 8.00

2,3,4,5-tetrahydro-9-chloro-7,8-dihydroxy-1-(4-hydroxyphenyl)-1H-3-benzazepine [SKF 82526]
dopamine D1 activity [1, 6]: selective but partial dopamine D1 agonists

CN1CCc2cc(Cl)c(O)cc2C(c2cccc3ccoc23)C1 (racemic) [Example No. 5h, 8-chloro-7-hydroxy-3-methyl-5-(7-benzofuranyl)-2,3,4,5-tetrahydro-1H-3-benzazepine]
pKi [3]: 8.22
